Source: a melting point compilation (Tetko et al.; mined from patent text by program, amines drawn as free bases though some values may be those of a salt)

SMILES | melting point [°C]
CN1CCN(S(=O)(=O)c2cccc(NC(=O)c3cnn4c(C(F)F)cc(-c5ccc(Cl)c(Cl)c5)nc34)c2)CC1 | 229
O=C1CCc2ncc3c(c21)CCO3 | 148 to 149
COC(=O)C1=C(N)CCC(C#N)(c2ccc(OC)c(OCC3CC3)c2)C1 (centres undefined) | 164 to 165
Cc1oc(-c2ccccc2)nc1COc1ccc(CCCCCC2OC(=O)NC2=O)cc1 (centres undefined) | 120 to 121
N#Cc1ccc(C(=O)CNc2ccc(I)cc2)cc1 | 160 to 165
OCCCON=Cc1cn(Cc2ccccc2)c2ccccc12 | 76.4 to 77.7
CCCCn1ccc(-c2ccc(Oc3ccnc(C)c3)cc2F)c(C#N)c1=O | 127
O=C(CC(=Cc1cccc2ccccc12)C(=O)O)NCCc1ccccc1 | 183 to 187
CCCCC=C(c1ccccc1N1CCCCC1)C(C(N)=O)c1ccc(C(=O)OCC)cc1 (centres undefined) | 83 to 85
CC#CCOc1ccc(S(=O)(=O)NCCC(=O)NO)cc1 | 118 to 128
COc1cccc2c1c(S(N)(=O)=O)nn2C | 268 to 270
CC(C)CNc1c([N+](=O)[O-])c2nnnn2c2ccccc12 | 152 to 154
CC(C)Cn1c(OCc2ccccc2)noc1=O | 53 to 60
O=c1[nH]c2cc(C(F)(F)F)ccc2n1C1CCNCC1 | 198
COc1cc2c(cc1Nc1ncc(Cl)c(Nc3ccc(N(C)C)cc3S(=O)(=O)C(C)C)n1)CCN(CC(=O)N(C)C)CC2 | 81 to 93
CC(C)c1cc(C(C)C)c(C(=O)Nc2ccc(C(=O)O)cc2)[nH]1 | 225 to 226
Nc1cc(N2CCOCC2)ccc1[N+](=O)[O-] | 177 to 178
CCNc1ccc(C#N)cc1[N+](=O)[O-] | 130 to 132
Cc1c(NC(=O)c2cc3c(s2)C(=O)CCC3)cccc1-c1cn(C)c(=O)c(Nc2ccc(C3C(=O)N(C)CCN3C)cc2)n1 (centres undefined) | 154 to 155
CC(Oc1ncn(-c2ccc(C(F)(F)F)cc2)n1)C(N)=O (centres undefined) | 178 to 180
CC(C)C(NC(=O)OCc1ccncc1)C(=O)NC(Cc1ccccc1)C(O)C(Cc1ccccc1)NC(=O)C(NC(=O)OCc1ccncc1)C(C)C (centres undefined) | 158 to 159
Nc1ccc(-c2cnc(CSCCOc3ccccc3)o2)cc1 | 110 to 111

Further lines, results first:

melting point [°C] | SMILES
194 to 197 | CS(=O)(=O)c1ccc(-n2cc(C(F)(F)F)nc2-c2ccsc2)cc1
66 to 69 | Cc1cc(-c2cc(Br)n(C)n2)c(C)[nH]1
150 to 152 | CCOc1nc(N)nc2c1ncn2CCC(CO)CO
172 to 173 | O=C(NCCCN1CCN(c2ncccn2)CC1)NC12CC3CC(CC(C3)C1)C2
83.5 to 84.5 | CCCc1c(OCCCOc2cccc3c2CCCC3)ccc2c1OC(CCC(=O)O)(CCC(=O)OCC)CC2=O (centres undefined)
97 to 98 | COc1cc(OCCOc2ccc3ccccc3c2)cc(OC)c1C(C)=O
111 to 113 | COc1ccc([C@@H]2Sc3ccccc3N(CCN(C)C)C(=O)[C@@H]2OC(=O)Nc2cccc(F)c2)cc1 (relative stereo)
243 to 245 | N#Cc1ccc2c(c1)NC(=O)CO2
63 to 65 | COc1ccc2cc(CCl)ccc2c1
148 to 150 | CN1CCN(c2cc(Cl)cc3c2c(=O)n(Cc2cccc(F)c2)c(=O)n3Cc2ccccc2)CC1
188 to 190 | O=C1NCCc2c1c1cccc(OCc3ccccc3)c1n2COCc1ccccc1
142 to 143 | NS(=O)(=O)c1ccc(-c2cc(F)c(F)cc2-c2ccc3c(c2)OCO3)cc1
96 to 98 | CCOCC1COc2c(cc(N)cc2C(F)(F)F)O1 (centres undefined)
156 | CN1[C@@H](c2cccc(I)c2)c2ccccc2S1(=O)=O
125 to 130 | Cc1c(-c2ccc(O)cc2)n(Cc2ccc(OCCN3C[C@@H]4CC[C@H]3C4)cc2)c2ccc(O)cc12
222 to 224 | O=C(O)c1ccc(C=CC(=O)c2ccccc2)cc1
112 | CC(C)(Oc1ccc(C2CCOCC2)cc1)C(=O)O
